Here are results for three molecules from patent publication US20080255368A1, “Tgf-ß Gene Expression Inhibitor” (Nihon University, priority 2004, published 2008).

The subject of one test is TGF-β1 messenger RNA. Nature of the test: Inhibition of expression of TGF-β1 messenger RNA in PMA-stimulated human mesangium cells (RT-PCR). Particulars: 12 hours serum-free; for inhibition of expression of TGFβ1 gene: 1×10^−6 M polyamide, 1×10^−6 M PMA stimulation, corrected with 18S. Type of test: cell-based. On the procedure:
(6) Reverse Transcription-Polymerase Chain Reaction (RT-PCR) Assay for RNA Extraction and Growth Factor mRNA
The cultured cells were washed with PBS, dissolved in 1,000 μL of Trizol (Invitrogen), mixed with 100 μL of chloroform, and centrifuged, and an upper aqueous phase thereof was mixed with an equal volume of isopropanol to precipitate RNA. The resulting RNA pellet was washed twice with 500 μL of 75% ethanol, dried, and dissolved in 10 μL of TE buffer solution. The RNA sample was denatured for 15 minutes at 65° C., and treated at room temperature for 45 minutes with 0.5 U of DNase (Gibco) in 0.5 ml of DNase buffer solution (20 mM Tris-HCl pH 8.3, 50 mM KCl, 2.5 mM MgCl2. The DNase was inactivated by adding 0.5 mL of 0.5 M EDTA and heating at 98° C. for 10 minutes.
An equal volume of RNA (1 μg/20 μL) was reverse-transcribed into single-stranded cDNA by 2.5 U/20 μL of avian myeloblastoma virus reverse transcriptase (Takara Biochemicals, Osaka, Japan) in 10 mM Tris-HCl (pH 8.3), 5 mM MgCl2, 50 mM KCl, 1 mM deoxy-NTPs, and 2.5 μM random hexamer. Then, 2 μL of the diluted cDNA product was mixed with 10 mM Tris-HCl (pH 8.3), 50 mM KCl, 4 mM MgCl2, 0.025 U/μL Taq DNA polymerase (Takara Biochemicals, Osaka, Japan), and 0.2 μM each of upstream sense primer and downstream antisense primer in a final volume of 25 μL. The sense primer (5′-[…]-3′) (SEQ ID NO: 7) and the antisense primer (5′-[…]-3′) (SEQ ID NO: 8) were used for PCR amplification of hTGF-β1 mRNA. A sense primer (5′-[…]-3′) (SEQ ID NO: 9) and an antisense primer (5′-[…]-3′) (SEQ ID NO:. 10) to human 18S ribosomal RNA were used as an internal control. PCR was performed by a Thermal Cycler (Perkin Elmer, Foster, Calif.). […] For semi-quantitative analysis of mRNA, the numbers of cycles whereby PCR products were detectable on gels were compared among various samples. cDNAs by successively 10 times dilutions (100, 10, and 1 ng) were amplified. […]

Test [1] has as its system double-stranded oligonucleotides corresponding to base pairs of an hTGF-β1 promoter. The test is described as follows: Gel shift assay of Py-Im polyamide-oligonucleotide complexes. Type of test: binding, human. As to conditions: 11-base double-stranded DNA containing the target sequence, compared with lanes with DS only, FIG. 3. On the procedure:
Oligonucleotides were synthesized and annealed, and thereby 12 types of double-stranded oligonucleotides corresponding to base pairs of an hTGF-β1 promoter were prepared. A double-strand DNA was labeled with [γ-^32P]-ATP by T4 polynucleotide kinase. The labeled double-stranded DNA was then incubated for 15 minutes at 37° C. with a polyamide or a mismatch polyamide in a binding buffer solution (40 mM Tris, pH 7.9, 250 mM NaCl, 25 mM EDTA, 25 mM DTT, 100 mM KCl). The obtained complexes were separated by electrophoresis on 20% polyacrylamide gels and visualized by autoradiography.
The binding to target sequences of GB1105 and GBP1106 was examined by gel shift assay. Sense and antisense oligonucleotide having 11 bases containing each target sequence of Py-Im polyamide were prepared, annealed to prepare a double-stranded DNA to the target site, and incubated with each Py-Im polyamide. The obtained products were electrophoresed with polyacrylamide gel and the binding between Py-Im and the target sequence was examined.
Background: Mobility shift assays separate free from complexed probe on a gel.

For the molecule `CNCCCNC(=O)CCNC(=O)c1cc(NC(=O)c2cc(NC(=O)CCNC(=O)c3cc(NC(=O)c4cc(NC(=O)c5cc(NC(=O)CCCNC(=O)c6nc(NC(=O)c7cc(NC(=O)c8nc(NC(=O)CCNC(=O)c9nc(NC(=O)c%10nc(NC(C)=O)cn%10C)cn9C)cn8C)cn7C)cn6C)cn5C)cn4C)cn3C)cn2C)cn1C` [GBP1105], in the test on TGF-β1 messenger RNA, the “inhibition of expression of TGFβ1 gene” value is “up to 50%”. Moreover, in test [1], the “binding to target sequence (migration of double-stranded DNA in gel shift)” value is on record as “decreased the migration degree”.
For `CC(=O)Nc1cn(C)c(C(=O)Nc2cc(C(=O)Nc3cn(C)c(C(=O)NCCC(=O)Nc4cc(C(=O)Nc5cc(C(=O)Nc6cc(C(=O)NCCCC(=O)Nc7cn(C)c(C(=O)Nc8cc(C(=O)Nc9cn(C)c(C(=O)NCCC(=O)Nc%10cc(C(=O)Nc%11cc(C(=O)Nc%12cc(C(=O)NCCC(=O)NCCCN(C)C)n(C)c%12)n(C)c%11)n(C)c%10)n9)n(C)c8)n7)n(C)c6)n(C)c5)n(C)c4)n3)n(C)c2)n1` [GBP1106], in that order: “up to 50%” and “decreased the migration degree”.
As to `CCCCCCCCCCCCCC(=O)O[C@@H]1[C@@H](C)[C@@]2(O)[C@@H](C=C(CO)C[C@]3(O)C(=O)C(C)=C[C@@H]23)[C@@H]2C(C)(C)[C@]12OC(C)=O` [PMA, 12-o-tetradecanoylpholbol-13-acetate, reference compound], in the test on TGF-β1 messenger RNA (1×10^−6 M of PMA stimulation, human mesangium cells), the “increase of expression of TGFβ1 gene” value was 20%.
